Patent US20180271863A1, “TARGETING P2 PURINERGIC RECEPTORS TO TREAT HEPATOCELLULAR CARCINOMA (HCC)” (Baylor College of Medicine, priority 2015, published 2018)

Key:
[1] = tested on: SNU-387 cells; test: BrdU incorporation (proliferation) in SNU-387 cells; type: cell-based, human; details: SFM 24 hours, ATP 24 hours
Protocol: (§1) To determine whether P2 purinergic receptor activation influences HCC cell proliferation, BrdU incorporation was assessed in HCC cells maintained in SFM for 24 hours and treated with ATP for 24 hours. ATP treatment alone was sufficient to induce proliferation in each of these cell lines (Huh7, 34%; Hep3B, 46%; SNU-387, 47% and PLC/PRF/5, 24%), identifying nucleotides as liver cancer cell mitogens (FIG. 7A).
(§2) Normal human primary hepatocytes isolated from healthy adults (no known history of HCC) in suspension or freshly-frozen prior to shipment (Cryoport Systems, CA) were purchased from Triangle Research Labs, NC. Fresh hepatocytes were plated on collagen-coated tissue culture plates or glass coverslips in Williams E complete media with additives (10% fetal bovine serum, 2 mM glutamine, […] insulin, 4 ng/ml glucagon, […] transferrin, 2.5 ng/ml sodium selenite, 10,000 U/ml penicillin, […] streptomycin, 50 g/ml gentamycin) for 3 h to ensure hepatocyte adherence to plates. […]
(§3) Formalin-fixed and paraffin embedded liver sections from HCC patients were analyzed by immunohistochemistry with anti-P2X3 antibody (Abcam, Cambridge, Mass.). […] BrdU positive cells were counted and expressed as a percentage of the total number of cells in ten randomly selected high-power fields (20×) per coverslips.

[2] = tested on: PLC/PRF/5 cells; test: BrdU incorporation (proliferation) in PLC/PRF/5 cells; type: cell-based, human; details: SFM 24 hours, ATP 24 hours
Protocol: as §1, §2, §3

[3] = tested on: Hep3B cells; test: MTT assay of cell proliferation and viability, Hep3B; type: cell-based, human; details: ATP 100 μM, 18 h
Protocol: (§4) Normal human primary hepatocytes isolated from healthy adults (no known history of HCC) in suspension or freshly-frozen prior to shipment (Cryoport Systems, CA) were purchased from Triangle Research Labs, NC. Fresh hepatocytes were plated on collagen-coated tissue culture plates or glass coverslips in Williams E complete media with additives (10% fetal bovine serum, 2 mM glutamine, […] insulin, 4 ng/ml glucagon, […] transferrin, 2.5 ng/ml sodium selenite, 10,000 U/ml penicillin, […] streptomycin, 50 g/ml gentamycin) for 3 h to ensure hepatocyte adherence to plates. Subsequently, hepatocytes were maintained in Williams E minimal media free from serum and growth factors for 24 h prior to treatment. Human hepatocellular carcinoma derived Huh7, and Hep3B, were cultured in Minimum Essential Medium Eagle (MEM); SNU-387 was cultured in Roswell Park Memorial Institute (RPMI) medium and PLC/PRF/5 cultured in Dulbecco's Modified Eagle's medium (DMEM). All maintenance culture media were supplemented with 10% fetal bovine serum (FBS), L-Glutamine (2 mM), penicillin (100 units/ml) and streptomycin ([…]) at 37° C. and 5% CO2. […]
(§5) Cell viability was determined using the 3-(4, 5-dimethylthiazol-2-yl)-2,5-diphenyltetrazolium (MTT, Sigma) assays. […] After shaking the plates for 30 min, the absorbance at 570 nm was measured (background subtraction at […]).

[4] = tested on: SNU-387 cells; test: MTT assay of cell proliferation and viability, SNU-387; type: cell-based, human; details: ATP 100 μM, 18 h
Protocol: as §4, §5

[5] = tested on: human hepatocytes; test: MTT assay of cell proliferation and viability, human hepatocytes; type: cell-based; details: 18 h treatment
Protocol: as §4, §5

[6] = tested on: PLC/PRF/5 cells; test: Western blotting of cyclin D3 in PLC/PRF/5 cells; type: cell-based, human; details: ATP 24 hours, serum-free
Protocol: HCC cells (Huh7, Hep3B, SNU-387, and PLC/PRF/5) maintained in serum-free conditions were treated with ATP for 24 hours and total protein extracts were analyzed by Western blotting for cyclin D3 expression. The α-tubulin was utilized as the protein loading control. Data represents mean±SD, n=3-6, *p<0.05 vs untreated (un).
Normal human primary hepatocytes isolated from healthy adults (no known history of HCC) in suspension or freshly-frozen prior to shipment (Cryoport Systems, CA) were purchased from Triangle Research Labs, NC. […]
(§6) Total protein extracts were obtained by homogenizing cells in total lysis buffer (50 mM Tris-HCl, pH 7.5, 0.5 M NaCl, 2 mM EGTA, 2 mM EDTA, 1.0% Triton X-100, 0.25% Deoxycholate, 1 m/ml pepstatin, 1.0 m/ml leupeptin, 1.0 m/ml aprotinin, 1.0 mM phenylmethylsulfonyl fluoride, 1.0 mM Dithiothreitol, 2.0 mM activated Na3VO4, and 2.0 mM NaF) and centrifuging at 14,000 rpm for 10 min (4° C.). Equal amounts of total proteins as determined by BCA protein Assay (Pierce, Rockford, Ill.) were analyzed by Western blotting. […]

[7] = tested on: Huh7 cells; test: Western blotting for cleaved PARP (apoptosis marker); type: cell-based, human; details: antagonist treatment alone
Excerpt: Arrows point to BrdU-positive cells, expressed as a percentage of total cells. Data represents mean±SEM, n=3-6, *p<0.05 vs. untreated. […] Data represents mean±SD, n=3, *p<0.05 vs. untreated, #p<0.05.
Applicants' observations that P2X3 agonist 2-MeSATP treatment alone was sufficient to induce cyclin D3 expression (1.9 fold) and pre-treatment with an alternative P2X3 antagonist (A317491) attenuated ATP induced cyclin D3 expression in Huh7 cells further validated the role of P2X3 purinergic receptor activation in the induction of cell-cycle progression in HCC cells (FIGS. 11C-D). Furthermore, P2X3 antagonist treatment alone was sufficient to reduce the baseline BrdU-positive cells and cyclin protein expression in serum-free conditions, implicating P2X3 activation as a necessary facilitator of Huh7 cell cycle progression (FIGS. 11A-B).
as §6

Nc1ncnc2c1ncn2[C@@H]1O[C@H](COP(=O)(O)OP(=O)(O)OP(=O)(O)O)[C@@H](O)[C@H]1O [ATP]
proliferation (BrdU incorporation) induced by ATP [1]: 47% | proliferation (BrdU incorporation) induced by ATP [2]: 24% | increase in cell proliferation and viability (MTT) [3]: 81% | increase in cell proliferation and viability (MTT) [4]: 90% | increase in cell proliferation and viability (MTT) [5]: 27% | cyclin D3 protein expression [6]: 1.4 fold

Nc1ncnc2c1ncn2[C@@H]1O[C@H](COP(=O)(O)OP(=O)(O)OP(O)(O)=S)[C@@H](O)[C@H]1O [ATPγS]
increase in cell proliferation and viability (MTT) [5]: 64%

COc1cc(C(C)C)c(Oc2cnc(N)nc2N)cc1I [AF-353]
cleaved PARP protein expression (marker of apoptosis) [7]: increased
